The target of this test is T1, TACE (Homo sapiens, UniProt P78536).
T1 construct: The TACE was isolated and purified from the membranes of the human monocytic cell line, THP-1; endogenous in cells; host or cells: THP-1 human monocytic cell line (ATCC TIB 202), stimulated to produce TNF-α; Enzyme was solubilised from plasma membranes and purified by chromatography
The test is described as follows: TACE activity assay (cleavage of TNF-α peptide substrate, HPLC). The test is classed as biochemical. As to conditions: dithiothreitol included in plasma membrane isolation from THP-1 cells. How it is done: As further described in Example 1, infra, a quantitative assay for TACE also may be used which assay involves incubating the peptide substrate, at about 1 mM, with TACE at 37° C. for a fixed period of time; stopping the reaction by the addition of an acid or a metal chelator; and determining the extent of cleavage by HPLC analysis.
This Example describes a method for purifying TACE. The TACE was isolated and purified from the membranes of the human monocytic cell line, THP-1, (ATCC no. TIB 202) that had been stimulated to produce TNF-α. THP-1 cells were chosen because they produce more TNF-α than HL-60 cells, a more commonly used human monocytic cell line. […]
This material was incubated at 37° C. for at least 4 hours with the TACE eluted from the DEAE-Sepharose, that had been treated with 1 mM N-methoxysuccinyl-Ala-Ala-Val -chloro-methylketone, 10 μg/ml leupeptin, and 1 mg/ml α1-protease inhibitor, all of which are commercially available. […] Based on this observation, a quantitative assay was established: the peptide, at 1 mM, was incubated with the enzyme at 37° C. for a fixed period of time, in the presence of 0.1 mM dichloroisocoumarin, 1 mM methoxysuccinyl-Ala-Ala-Pro-Val-chloromethyl-ketone, 10 μg/ml leupeptin, 10 μM bestatin, and 1 mg/ml α1-protease inhibitor (Sigma), all of which are commercially available. […]

T1 sequence (P78536 215-824): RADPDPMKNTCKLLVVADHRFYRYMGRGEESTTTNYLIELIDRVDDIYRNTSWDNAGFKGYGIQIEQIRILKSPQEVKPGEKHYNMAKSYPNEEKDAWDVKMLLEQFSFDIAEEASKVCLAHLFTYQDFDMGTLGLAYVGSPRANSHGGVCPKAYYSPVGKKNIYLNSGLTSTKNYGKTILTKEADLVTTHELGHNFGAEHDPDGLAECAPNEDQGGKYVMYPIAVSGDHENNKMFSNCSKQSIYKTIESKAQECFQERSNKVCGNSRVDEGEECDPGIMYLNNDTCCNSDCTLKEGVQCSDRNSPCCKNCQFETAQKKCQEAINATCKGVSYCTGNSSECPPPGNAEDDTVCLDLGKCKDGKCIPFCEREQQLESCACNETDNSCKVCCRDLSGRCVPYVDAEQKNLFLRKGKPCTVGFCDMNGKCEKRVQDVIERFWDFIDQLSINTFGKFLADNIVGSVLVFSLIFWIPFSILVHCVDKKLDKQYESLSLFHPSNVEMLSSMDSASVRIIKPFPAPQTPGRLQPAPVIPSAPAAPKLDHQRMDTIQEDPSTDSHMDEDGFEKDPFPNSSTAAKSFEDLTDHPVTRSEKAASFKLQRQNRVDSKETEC

With `O[C@H](CS)[C@H](O)CS` (racemic) [dithiothreitol], the TACE activity result is listed as “blocks TACE activity”.

Values taken from patent US7695948B2, “Antibodies that bind TNF-α converting enzyme” (Immunex Corporation, priority 1995, dated 2010).
